Measured values taken from patent US10570129B2 (Zoetis Services LLC, priority 2015, dated 2020).

What was measured:
[1] = test system: D. immitis microfilariae; test: Dirofilaria immitis, microfilariae (DiMF) in vitro motility assay; format: cell-based; settings: for minimal effective concentration: Dirofilaria immitis, 72 h, read-out: DiMF minimally effective dose (MEC); for DiMF minimally effective dose (MEC): decrease in microfilariae motility by subjective visual assessment, observed at 72 hours
[2] = test system: Haemonchus contortus L3; test: microbe, parasite or virus in culture; format: cell-based; settings: for minimal effective concentration: Haemonchus contortus, 96 h, read-out: HcL3 Minimal Effective Concentration (MEC)

N#Cc1ccc2c(c1)c1c(n2C(=O)NCc2ccnc(Cl)c2)CCN(C/C=C/c2cc(F)c(F)c(F)c2)C1 [Example 89, (E)-N-((2-chloropyridin-4-yl)methyl)-8-cyano-2-(3-(3,4,5-trifluorophenyl)allyl)-1,2,3,4-tetrahydro-5H-pyrido[4,3-b]indole-5-carboxamide]
minimal effective concentration [1]: 1 µM | minimal effective concentration [2]: 0.1 µM

COc1ccc(/C=C/CN2CCc3c(c4c(OC(F)(F)F)cccc4n3C(=O)NCc3ccnc(Cl)c3)C2)cc1 [Example 359, (E)-N-((2-chloropyridin-4-yl)methyl)-2-(3-(4-methoxyphenyl)allyl)-9-(trifluoromethoxy)-1,2,3,4-tetrahydro-5H-pyrido[4,3-b]indole-5-carboxamide]
minimal effective concentration [1]: 3.3 µM | minimal effective concentration [2]: 3.3 µM

O=C(NCc1ccnc(Cl)c1)n1c2c(c3c(OC(F)(F)F)cccc31)CN(C/C=C/c1ccc(Cl)cc1)CC2 [Example 354, (E)-2-(3-(4-chlorophenyl)allyl)-N-((2-chloropyridin-4-yl)methyl)-9-(trifluoromethoxy)-1,2,3,4-tetrahydro-5H-pyrido[4,3-b]indole-5-carboxamide]
minimal effective concentration [1]: 18.2 µM | minimal effective concentration [2]: 57.4 µM

O=C(NCc1ccnc(Cl)c1)n1c2c(c3cc(Cl)ccc31)CN(C/C=C/c1ccc(Cl)c(Cl)c1)CC2 [Example 243, (E)-8-chloro-N-((2-chloropyridin-4-yl)methyl)-2-(3-(3,4-dichlorophenyl)allyl)-1,2,3,4-tetrahydro-5H-pyrido[4,3-b]indole-5-carboxamide]
minimal effective concentration [1]: 10 µM | minimal effective concentration [2]: 1.3 µM

N#Cc1ccc2c(c1)c1c(n2C(=O)NCc2ccnc(F)c2)CCN(C/C=C/c2ccc(F)c(F)c2F)C1 [Example 110, (E)-8-cyano-N-((2-fluoropyridin-4-yl)methyl)-2-(3-(2,3,4-trifluorophenyl)allyl)-1,2,3,4-tetrahydro-5H-pyrido[4,3-b]indole-5-carboxamide]
minimal effective concentration [1]: > 100 µM | minimal effective concentration [2]: 0.3 µM

O=C(NCc1ccnc(F)c1)n1c2c(c3cc(Cl)ccc31)CN(C/C=C/c1ccc(F)cc1Cl)CC2 [Example 256, (E)-8-chloro-2-(3-(2-chloro-4-fluorophenyl)allyl)-N-((2-fluoropyridin-4-yl)methyl)-1,2,3,4-tetrahydro-5H-pyrido[4,3-b]indole-5-carboxamide]
minimal effective concentration [1]: 10 µM | minimal effective concentration [2]: 0.2 µM

CCOc1ccc2c(c1)c1c(n2C(=O)NCc2ccnc(Cl)c2)CCN(C/C=C/c2ccc(F)cc2)C1 [Example 514, (E)-N-((2-chloropyridin-4-yl)methyl)-8-ethoxy-2-(3-(4-fluorophenyl)allyl)-1,2,3,4-tetrahydro-5H-pyrido[4,3-b]indole-5-carboxamide]
minimal effective concentration [1]: 5.7 µM | minimal effective concentration [2]: 5.7 µM

O=C(NCc1ccnc(F)c1)n1c2c(c3cc(C(F)(F)F)ccc31)CN(C/C=C/c1ccc(Cl)c(F)c1)CC2 [Example 415, (E)-2-(3-(4-chloro-3-fluorophenyl)allyl)-N-((2-fluoropyridin-4-yl)methyl)-8-(trifluoromethyl)-1,2,3,4-tetrahydro-5H-pyrido[4,3-b]indole-5-carboxamide]
minimal effective concentration [1]: 12.4 µM | minimal effective concentration [2]: 2.7 µM

N#Cc1ccc2c3c(n(C(=O)NCc4ccnc(Cl)c4)c2c1)CCN(C/C=C/c1cc(Br)ccc1F)C3 [Example 11, (E)-2-(3-(5-bromo-2-fluorophenyl)allyl)-N-((2-chloropyridin-4-yl)methyl)-7-cyano-1,2,3,4-tetrahydro-5H-pyrido[4,3-b]indole-5-carboxamide]
minimal effective concentration [1]: > 100 µM | minimal effective concentration [2]: 1.8 µM

N#Cc1ccc2c(c1)c1c(n2C(=O)NCc2ccnc(Cl)c2)CCN(C/C=C/c2ccc(Cl)c(Br)c2)C1 [Example 97, (E)-2-(3-(3-bromo-4-chlorophenyl)allyl)-N-((2-chloropyridin-4-yl)methyl)-8-cyano-1,2,3,4-tetrahydro-5H-pyrido[4,3-b]indole-5-carboxamide]
minimal effective concentration [1]: > 100 µM | minimal effective concentration [2]: 0.3 µM

O=C(NCc1ccnc(Cl)c1)n1c2c(c3cc(OC(F)(F)F)ccc31)CN(C/C=C/c1ccc(C(F)(F)F)cc1)CC2 [Example 396, (E)-N-((2-chloropyridin-4-yl)methyl)-8-(trifluoromethoxy)-2-(3-(4-(trifluoro-methyl)phenyl)allyl)-1,2,3,4-tetrahydro-5H-pyrido[4,3-b]indole-5-carboxamide]
minimal effective concentration [1]: 1 µM | minimal effective concentration [2]: 3.3 µM

N#Cc1ccc(/C=C/CN2CCc3c(c4cc(Br)ccc4n3C(=O)NCc3ccnc(F)c3)C2)cc1F [Example 189, (E)-8-bromo-2-(3-(4-cyano-3-fluorophenyl)allyl)-N-((2-fluoropyridin-4-yl)methyl)-1,2,3,4-tetrahydro-5H-pyrido[4,3-b]indole-5-carboxamide]
minimal effective concentration [1]: 10.4 µM | minimal effective concentration [2]: 0.3 µM

(E)-8-cyano-2-(3-(2,4-difluorophenyl)allyl)-N-((2-(trifluoromethyl)pyridin-4-yl)methyl)-1,2,3,4-tetrahydro-5H-pyrido[4,3-b]indole-5-carboxamide [Example 129]
DiMF minimally effective dose (MEC) [1]: 3.5 µM | HcL3 Minimal Effective Concentration (MEC) [2]: 0.05 µM

N#Cc1ccc(/C=C/CN2CCc3c(c4cc(F)c(Cl)cc4n3C(=O)NCc3ccnc(Cl)c3)C2)cc1F [Example 298, (E)-7-chloro-N-((2-chloropyridin-4-yl)methyl)-2-(3-(4-cyano-3-fluoro-phenyl)allyl)-8-fluoro-1,2,3,4-tetrahydro-5H-pyrido[4,3-b]indole-5-carboxamide]
minimal effective concentration [1]: > 100 µM | minimal effective concentration [2]: 1.8 µM

O=C(NCc1ccnc(F)c1)n1c2c(c3c(C(F)(F)F)cc(F)cc31)CN(C/C=C/c1ccc(Cl)cc1)CC2 [Example 326, (E)-2-(3-(4-chlorophenyl)allyl)-7-fluoro-N-((2-fluoropyridin-4-yl)methyl)-9-(trifluoromethyl)-1,2,3,4-tetrahydro-5H-pyrido[4,3-b]indole-5-carboxamide]
minimal effective concentration [1]: 10 µM | minimal effective concentration [2]: 7.6 µM

(E)-N-((2-chloropyridin-4-yl)methyl)-2-(3-(3,4-dichlorophenyl)allyl)-9-methyl-1,2,3,4-tetrahydro-5H-pyrido[4,3-b]indole-5-carboxamide [Example 148]
DiMF minimally effective dose (MEC) [1]: 10.0 µM | HcL3 Minimal Effective Concentration (MEC) [2]: 5.7 µM

Cc1cc2c(cc1OC(F)(F)F)c1c(n2C(=O)NCc2ccnc(Cl)c2)CCN(C/C=C/c2ccc(Cl)cc2)C1 [Example 494, (E)-2-(3-(4-chlorophenyl)allyl)-N-((2-chloropyridin-4-yl)methyl)-7-methyl-8-(trifluoromethoxy)-1,2,3,4-tetrahydro-5H-pyrido[4,3-b]indole-5-carboxamide]
minimal effective concentration [1]: > 100 µM | minimal effective concentration [2]: 1 µM

O=C(NCc1ccnc(Cl)c1)n1c2c(c3cc(Br)ccc31)CN(C/C=C/c1ccc(F)c(F)c1)CC2 [Example 183, (E)-8-bromo-N-((2-chloropyridin-4-yl)methyl)-2-(3-(3,4-difluorophenyl)allyl)-1,2,3,4-tetrahydro-5H-pyrido[4,3-b]indole-5-carboxamide]
minimal effective concentration [1]: 18.2 µM | minimal effective concentration [2]: 0.5 µM
